Data from patent US6114326A, “Use of cabergoline in the treatment of restless legs syndrome” (priority 1999, dated 2000).
“Also recorded” adds a separate entry of the source.

Experiments:
[1] = tested on: restless legs syndrome patients; assay: Safety / adverse events, tolerability, augmentation in 12-week open label trial; format: in vivo; conditions: 6 months or more after treatment, compared with L-Dopa
[2] = tested on: restless legs syndrome patients; assay: as above; format: in vivo
Source text: Apart from levodopa, patients had to stop taking any medication known to have positive or negative effect on RLS two weeks before baseline (i.e., other dopamine agonists, benzodiazepines, opioids or other psychotropic agents). Patients who were on levodopa therapy were allowed to either stop levodopa prior to study entry or to continue, taper or discontinue levodopa during the study. To prevent well known peripheral dopaminergic side-effects such as nausea, vomiting, vertigo and arterial hypotension domperidone (not available in the United States) was comedicated initially and also tapered if possible. […] Neurological case history, examination, electrocardiogramm, chest x-ray and polysomnography were performed to ensure that selection criteria were fulfilled. A two-night PSG (including one night of adaptation) was performed to evaluate the diagnosis and inclusion/exclusion criteria regardless if patients were on or off levodopa. After a 12-week treatment period patients were studied again for one night in the sleep laboratory. Subjective ratings were obtained at baseline, week 4, week 8 and at the endpoint after 12 weeks. In addition patients were monitored by phone calls to note any adverse events and to determine whether to increase the dosage of the study drug, to decrease levodopa and to decrease domperidone. The time schedule of phone calls was variable and the frequency mostly dependent on the presence of simultaneous levodopa therapy. Dosing. […] Medication was taken 2 hours prior to bedtime. Initial therapy consisted of one 0.5 mg tablet. […] The increased dose could be decreased again if necessary. […] Subjects who were pretreated with levodopa were asked to decrease levodopa simultaneously if possible. Physician's rating. The physician rated the severity of illness at baseline (normal to extremely ill), the global improvement (general condition very much worse to very much better) and the side effects by use of the Clinical Global Impressions (CGI). Safety. Safety of Cabergoline was assessed to the type and frequency of adverse event, clinically significant changes in laboratory data or ECG and premature discontinuation of study participation. Adverse events were classified as serious versus nonserious and characterized by intensity, relationship to drug treatment, frequency, course and therapeutic intervention.

C=CCN1C[C@H](C(=O)N(CCCN(C)C)C(=O)NCC)C[C@@H]2c3cccc4[nH]cc(c34)C[C@H]21 [Cabergoline, 1((6-allylergolin-8β-yl) -carbony.)-1-(3-(dimethylamino)propyl)-3-ethylurea]
tolerance to treatment (in words) [1]: low tolerance; also recorded: lack of tolerance
peripheral or other dopaminergic side effects ([2]; 4 mg cabergoline monotherapy): did not see peripheral or other dopaminergic side effects
total adverse events probably related to study drug ([2]; 9 patients, 12 weeks): 8
augmentation under cabergoline ([2]; 12-week treatment): lower incidence; also recorded: did not observe augmentation
duration and intensity of adverse events ([2]; all adverse events): temporary and considered to be mild to moderate
reversal of levodopa-evoked augmentation of RLS symptoms ([2]; all patients): reversible
discontinuation of levodopa during study ([2]; all patients initially on levodopa): discontinued levodopa treatment
tolerability (in words) ([2]; domperidone stopped in all patients): excellent tolerability; also recorded: good tolerability
changes in laboratory data or ECG ([2]; in vivo): No significant changes
serious side effects / serious adverse events ([2]; in vivo): no serious side effects; also recorded: no serious adverse events
withdrawal / discontinuation of patients ([2]; in vivo): no patient withdrew; also recorded: no patient discontinued
patients with adverse events probably related to study drug ([2]; of 9 patients): 5 patients
diarrhea ([2]; probably related side effects): 1
dizziness ([2]; probably related side effects): 2
headache ([2]; probably related side effects): 2
vertigo ([2]; probably related side effects): 2
nausea ([2]; probably related, led to temporary dose reduction): 1 patient
